Experiments:
[1] = tested on: B/Yamagata-lineage virus neuraminidase (NA); assay type: biochemical, influenza B/Yamagata-lineage virus
A(H1N2)v viruses = assay type: cell-based
influenza viruses = assay type: cell-based, influenza virus

| SMILES | inhibition phenotype (NI/RI/HRI) [1] | baloxavir susceptibility (A(H1N2)v viruses) | fold increase compared to the respective median EC50 (influenza viruses) |
| --- | --- | --- | --- |
| CC(=O)N[C@H]1[C@H]([C@H](O)[C@H](O)CO)OC(C(=O)O)=C[C@@H]1N=C(N)N [Zanamivir, zanamivir] | RI (key: normal inhibition (NI) is a <5-fold increase in the NAI IC50; RI is a 5- to 50-fold increase; HRI is a >50-fold increase) |  |  |
| COC(=O)OCOc1c2n(ccc1=O)N([C@@H]1c3ccccc3SCc3c1ccc(F)c3F)[C@@H]1COCCN1C2=O [baloxavir, baloxavir marboxil] |  | susceptible | < 3 fold |

Source: publication PMC9254721, “Global update on the susceptibilities of human influenza viruses to neuraminidase inhibitors and the cap-dependent endonuclease inhibitor baloxavir, 2018–2020” (Antiviral research, 2022)
